One data set deals with H358 cells. Put plainly: Cell viability dose-response assay (CellTiter-Glo), IC50 calculation. In kind it is cell-based, human.
The test system of data set [1] is lung cancer cells (PC9, PC9 GR4, H460, H358). The data set is described as follows: Seahorse XF Analyzer Mito Stress Test (OCR: basal respiration, maximal respiration, ATP production). In kind it is cell-based, human. The conditions noted are these: for mitochondrial function (basal respiration, maximal respiration, ATP production; OCR): IC50 doses, 24 hours, PC9, PC9 GR4, H460, H358; for mitochondrial respiration in cells treated with ABL001 and simvastatin (MVA rescue and its reversal): PC9 GR4, added to ABL001 + simvastatin (inhibitors with MVA). From the text:
(FIGS. 2A-2D) Seahorse XF Analyzer Mito Stress Test analysis of mitochondrial basal respiration, maximal respiration, and ATP production as measured by changes in oxygen consumption rate (OCR). […] (FIG. 2E) Mitochondrial basal respiration, maximal respiration, and ATP production as measured by Seahorse XF Analyzer's Mito Stress Test for PC9 cells harboring shRNAs against ABL1/ABL2 (shAA) and non-targeting control (shSCR). (FIGS. 2F-2G) Mitochondrial ROS (MitoROS) release as measured by FACS analysis of median fluorescent intensity (MFI) using Mitosox probe. […] Data are mean±SEM. […] Seahorse XF Analyzer Mito Stress Test analysis of mitochondrial basal respiration, maximal respiration, and ATP production as measured by changes in oxygen consumption rate (OCR) in the indicated lung cancer cells: (FIG. 8A) PC9; (FIG. 8B) PC9 GR4; (FIG. 8C) H460. […] Doses correspond to IC50 dose for each drug in the corresponding cell line. In each graph, for each of Basal Respiration, Maximal Respiration, and ATP production, data is shown from left to right for DMSO, GNF5, and Nilotinib. […] Cells were treated with IC50 doses for 24 hours (n=3). Data are mean±SEM. […] SEAHORSE MEASUREMENTS. Basal and maximal oxygen consumption rate and ATP production were measured using a Mito Stress test Kit and XF96 Extracellular Flux Analyzer (Seahorse Bioscience), according to manufacturer's instructions. Cells were plated in XF96 plates at 10,000 cells per well on Day 0. […] The plate was incubated in a non-CO2 incubator at 37° C. for 1 hr to equilibrate.

In data set [2] the test system is PC9, PC9 GR4 and H460 cells. The data set is described as follows: MitoSOX staining, mitochondrial ROS by FACS. Type of data set: cell-based, human. The conditions noted are these: EGFR mutant PC9 and PC9 GR4 cells, IC50 doses, 24 hours. A general note: A flow cytometer gives signals particle by particle.
Data set [3] relates to PC9 GR4 cells. The data set is described as follows: Cell viability dose-response assay (CellTiter-Glo), IC50 calculation. In kind it is cell-based, human.
The next data set has as its system PC9 and H460 cells. Put plainly: MitoTracker staining, mitochondria number and morphology. Type of data set: cell-based, human. The conditions noted are these: IC50 dose, 24 hours. As to the method: (FIG. 9A) Mitochondrial basal respiration, maximal respiration, and ATP production as measured by changes in oxygen consumption rate (OCR) from Seahorse XF Analyzer Mito Stress Test analysis for H460 cells harboring shRNAs against ABL1/ABL2 (shAA) and non-targeting control (shSCR). (FIG. 9B) FACS analysis of mitochondrial ROS (MitoROS) using mitosox probe in H460 cells treated with 15 NM GNF5, 15 NM ABL001, and 0.5 nM Docetaxel for 24 hours. n=3 (FIGS. 9C-9D) MitoROS in H460 AA knockdown cells (FIG. 9C) or PC9 AA knockdown cells (FIG. 9D). (FIGS. 9E-9F) M[…] to analyze mitochondria number in H460 cells with 15 NM GNF5 (FIG. 9E) or PC9 cells treated with 10 NM GNF5 (FIG. 9F). n=3 (FIGS. 9G-9H) M[…] of H460 AA knockdown cells (FIG. 9G) or PC9 AA knockdown cells (FIG. 9H). n=3 Statistical analysis was calculated using unpaired two-tailed t test *p<0.05, Data are mean±SEM. (FIG. 9I) H460 cells stained with Mitotracker and Hoescht 33342 following treatment with IC50 dose for each drug for 24 hours. Image quantification showing mitochondrial length×width plotted for thousands of mitochondria from >10 cells across at least two independent experiments. Changes were not statistically significant.
M[…] . MitoTracker Red CMXRos was purchased from Thermofisher (cat. M7512). […] The samples were analyzed using flow cytometer BD FACS Canto II. […]

The next data set relates to H460 cells. The data set is described as follows: Cell viability dose-response assay (CellTiter-Glo), IC50 calculation. In kind it is cell-based, human.
Data set [4] concerns lung cancer cells (PC9, PC9 GR4, PC9 BrM3, H460, H358). Put plainly: 72 hr growth inhibition / cell viability assay with drug combinations and metabolite rescue. In kind it is cell-based, human. The conditions noted are these: for cell survival in the presence of statins: PC9-BrM3, sub-therapeutic doses, 72 hrs; for cell survival on co-treatment with ABL001: PC9 GR4, PC9 and H460 cells; for rescue of cell survival in cells co-treated with ABL001 and simvastatin: metabolite supplement, 72 hours, PC9 GR4, PC9, H460.

The next data set relates to PC9 BrM3 cells. Put plainly: Cell viability dose-response assay (CellTiter-Glo), IC50 calculation. In kind it is cell-based, human. The note with it: read-out: Calculated IC50.
For data set [5] the following is noted: cited from earlier work.
Data set [6] relates to PC9 cells. Put plainly: cells. The conditions noted are these: Homo sapiens, PC-9, read-out: Calculated IC50.
Data set [7] concerns PC9 cells. The conditions noted are these: read-out: Calculated IC50, dose-response assay.
The subject of data set [8] is lung cancer cells (PC9, PC9 GR4, PC9 BrM3, H460). The data set is described as follows: Immunoblotting of apoptosis, prenylation and cytochrome c markers. In kind it is cell-based, human. The conditions noted are these: 24 hr. Background: A western blot detects proteins with antibodies after separation by electrophoresis.
Data set [9] concerns PC9 GR4 cells. Put plainly: Real-time quantitative PCR of BCL-2 family mRNAs. The conditions noted are these: PC9 GR4, metabolite supplement, 24 hours. Type of data set: cell-based, human. The procedure:
(FIG. 5E) Immunoblots of cytochrome c, cleaved PARP, β-catenin, GAPDH, and β-Tubulin. […] Cytoplasmic, membrane, and whole cell fractions are shown for drug treatments. […] Data are mean±SEM. REAL-TIME QUANTITATIVE PCR. RNA was isolated from subconfluent monolayers of cancer cells using the RNeasy RNA isolation kit (QIAGEN), and cDNA synthesis was performed using oligo(dT) primers and M-MLV reverse transcriptase (Invitrogen). RT-qPCR was performed in triplicate wells using iTaq Universal SYBR Green Supermix (Bio-Rad). Primers used in this study were purchased from Sigma Aldrich. Analysis of real-time data was collected using a Bio-Rad CFX384 machine and CFX Maestro software. Expression levels of each gene were normalized to GAPDH control housekeeping genes using the ddCT algorithm.

The mark [10] stands for this setting: Homo sapiens, NCI-H358, H358, dose-response assay, read-out: Calculated IC50.
Setting [11] is: Homo sapiens, PC9 GR4, dose-response assay, read-out: Calculated IC50.
Setting [12] is: Homo sapiens, NCI-H460, H460, dose-response assay, read-out: Calculated IC50.
Setting [13] is: Homo sapiens, PC9 BrM3, dose-response assay.
The mark [14] stands for this setting: PC9 GR4, dose-response assay, read-out: Calculated IC50.
The mark [15] stands for this setting: H460, dose-response assay, read-out: Calculated IC50.

Consider ten molecules from US20240058335A1, “METHODS FOR TREATMENT OF CANCER USING ABL INHIBITORS AND DRUGS TARGETING THE MEVALONATE PATHWAY” (Duke University, priority 2021, published 2024).

Read-outs that look alike come from different tables or passages of the source.

The term IC50 denotes the concentration at which inhibition is half-maximal. Turning to `O=C(Nc1ccc(OC(F)(F)Cl)cc1)c1cnc(N2CC[C@@H](O)C2)c(-c2ccn[nH]2)c1` [ABL001, Asciminib], the IC50 in the data set on H358 cells (Homo sapiens, NCI-H358, read-out: Calculated IC50) is 15 µM; with PC9 GR4 cells [3] (Homo sapiens, PC9/GR4, read-out: Calculated IC50) it was 7.5 µM; in the data set on H460 cells (Homo sapiens, NCI-H460, read-out: Calculated IC50), 15 µM; in the data set on PC9 BrM3 cells (Homo sapiens), 7.5 µM; with PC9 cells [6], 7.5 µM. In addition, the “mitochondrial function (basal respiration, maximal respiration, ATP production; OCR)” value (“mitochondrial function” for short) in data set [1] is on record as “greatly decreased”. The “mitochondrial reactive oxygen species (MitoROS) levels” value in data set [2] is on record as “increased”. Besides, the “mitochondrial morphology (length and width, network)” value in the data set on PC9 and H460 cells is recorded as “marginal, nonsignificant increase”. Further, the “cell survival in the presence of statins” value in [4] was “decreased cell survival”. In addition, in data set [5] (mouse, in vivo, po), the tolerability entry was “well tolerated”. The body weight entry in data set [5] (oral gavage, mice) is listed as “does not induce weight loss”. The “crossing of the BBB” value in [5] (preclinical mouse models) is recorded as “shown to cross the BBB”.

Consider `CC(=O)O[C@@]12CO[C@@H]1C[C@H](O)[C@@]1(C)C(=O)[C@H](O)C3=C(C)[C@@H](OC(=O)[C@H](O)[C@@H](NC(=O)OC(C)(C)C)c4ccccc4)C[C@@](O)([C@@H](OC(=O)c4ccccc4)[C@H]21)C3(C)C` [Docetaxel, docetaxel], for which the IC50 is 0.001 µM in the data set with H358 cells (setting [10]); 0.001 µM with PC9 GR4 cells [3] (setting [11]); 0.0005 µM with H460 cells (setting [12]); 0.001 µM with PC9 BrM3 cells (setting [13]); 0.001 µM with PC9 cells [6]. For the same molecule, the “mitochondrial function” value in [1] is on record as “did not significantly impair”. Moreover, in data set [4], the “cell survival in the presence of statins” value is given as “did not affect cell survival”.

Consider `COC(=O)[C@H](CCSC)NC(=O)c1ccc(NC[C@@H](N)CS)cc1-c1ccccc1` [FTI-277], for which the “mitochondrial respiration in cells treated with ABL001 and simvastatin (MVA rescue and its reversal)” value (“mitochondrial respiration” below) in data set [1] is “minimal effect”. The IC50 in the data set on PC9 GR4 cells [3] (setting [14]) is 50 µM; with PC9 cells [7], 50 µM; in the data set with H460 cells (setting [15]) it was 15 µM. Further, the “cell survival on co-treatment with ABL001” value in [4] (72 hr) was “only slightly decreased”.

For the molecule `CC(C)n1c(/C=C/C(O)CC(O)CC(=O)O)c(-c2ccc(F)cc2)c2ccccc21` (stereo not shown) [Fluvastatin], the IC50 is 4 µM with H358 cells (H358, dose-response assay, read-out: Calculated IC50); 2 µM in the data set on PC9 GR4 cells [3] (setting [14]); 2 µM with PC9 cells [7]; 4 µM with H460 cells (setting [15]); 2 µM with PC9 BrM3 cells (PC9 BrM3, dose-response assay).

`CC(C)=CCC/C(C)=C/CC/C(C)=C/CC/C(C)=C/COP(=O)(O)OP(=O)(O)O` [GGPP, geranylgeranyl diphosphate]: the “rescue of cell survival in cells co-treated with ABL001 and simvastatin” value in data set [4] was “preferentially rescued cell viability”.

Turning to `COC(=O)[C@H](CC(C)C)NC(=O)c1ccc(NC[C@@H](N)CS)cc1-c1cccc2ccccc12` [GGTI-298], the “mitochondrial respiration” value in data set [1] is “negated the MVA rescue”. The concentration for half-maximal inhibition (IC50) is 20 µM in the data set with PC9 GR4 cells [3] (setting [14]), 20 µM with PC9 cells [7] and 15 µM with H460 cells (setting [15]). The “cell survival on co-treatment with ABL001” value in data set [4] (72 hr) is reported as “significantly impaired”.

On to `COc1cc2ncnc(Nc3ccc(F)c(Cl)c3)c2cc1OCCCN1CCOCC1` [Gefitinib, gefitinib], for which the “mitochondrial function” value in [1] is listed as “not impaired”. The “cell survival in the presence of statins” value in data set [4] is “did not affect cell survival”.

On to `C[C@@](O)(CCO)CC(=O)O` [MVA, mevalonate], for which the “mitochondrial respiration” value in [1] was “restored mitochondrial respiration back to baseline”. The “reversal of cytochrome c release” value in [8] (PC9 GR4, 500 μM MVA added to ABL001 and simvastatin) was “reversed”. Besides, the “prevention of PARP and caspase-3 cleavage in cells co-treated with ABL001 and simvastatin” value in data set [8] (metabolite supplement) is “prevented cleavage of PARP and caspase-3”. Besides, the “restoration of BCL-2 family gene expression in combination-treated cells” value in the data set on PC9 GR4 cells [9] is on record as “restored gene expression back to baseline”. Further, the “rescue of cell survival in cells co-treated with ABL001 and simvastatin” value in data set [4] is given as “could rescue cell survival”.

On to `Cc1cn(-c2cc(NC(=O)c3ccc(C)c(Nc4nccc(-c5cccnc5)n4)c3)cc(C(F)(F)F)c2)cn1` [Nilotinib], for which, in data set [1], the “mitochondrial function” value was “inability of Nilotinib to inhibit mitochondria function”. Moreover, the half-maximal inhibitory concentration (IC50) in the data set on PC9 GR4 cells [3] (setting [11]), in the data set on H460 cells (setting [12]) and with PC9 cells [6] was 2 µM each time. For the same molecule, the “cell viability on co-treatment with simvastatin or fluvastatin” value in data set [4] (PC9 GR4 and H460, sublethal doses, 72 hr) is “did not promote additive or synergistic decreases in cell viability”.

In the case of `CCC(C)(C)C(=O)O[C@H]1C[C@@H](C)C=C2C=C[C@H](C)[C@H](CC[C@@H]3C[C@@H](O)CC(=O)O3)[C@H]21` [Simvastatin, simvastatin], the IC50 is 12 µM with H358 cells (setting [10]); 4 µM with PC9 GR4 cells [3] (setting [11]); 12 µM in the data set with H460 cells (setting [12]); 4 µM in the data set with PC9 BrM3 cells (setting [13]); 4 µM in the data set with PC9 cells [6].
